# Laboratory results: patent US20080069815A1, “ANTI-OSTEOPONTIN ANTIBODY AND USE THEREOF” (IMMUNO-BIOLOGICAL LABORATORIES CO., LTD., priority 2001, published 2008)
# Tests used:
# [1] = tested on: mouse collagen arthritis model; assay: Mouse collagen arthritis model (arthritogenic antibody cocktail/LPS); format: in vivo; settings: for Arthritis score: 3.2 mg/kg orally once daily; for Volume of leg edema / Body weight change / Quantity of feed intake: 3.2 mg/kg
# Description: For arthritis induction, an arthritogenic antibody cocktail (under the trade name of a cocktail for arthritis, Arthrogen-CIA® mAb, Arthritogenic mAb cocktail; manufactured by Iwai Chemical Pharmaceutical Co., Ltd.) recognizing four epitopes specific to collagen was used. To a mouse was intravenously administered the arthritogenic cocktail; 3 days later, LPS (100 μg) was intraperitoneally administered to thereby elicit arthritis. Arthritis was observed on day 3 after LPS dosing, which reached maximum on day 6.
# Immediately before LPS dosing and 3 days later, the M5 antibody was intravenously administered at a dose of 40 μg, 150 μg or 400 μg. As the control group, a rabbit IgG-dosed group (at a dose of 400 μg) was arranged. Additionally, the anti-mouse TNF-α antibody was intravenously administered at a dose of 200 μg/mouse immediately before LPS administration and 3 days later. As the control group, a rat IgG-dosed group (at a dose of 200 μg) was arranged. Further, MTX was orally given (at a dose of 3.2 mg/kg) once daily on the very day of LPS dosing and thereafter. Then, MTX dissolved in 5 ml of 0.5% methyl cellulose solution was used. For the control group, 5 ml of 0.5% methyl cellulose solution was arranged.
# Assessment was done per one group of five animals, concerning four items, namely arthritis score, leg edema, body weight change and feed intake.
# [2] = tested on: human fibroblast TIG-7 adhesion to OPN; assay: Inhibition of TIG-7 cell adhesion to OPN (CHO/OPN-a coated plate); format: cell-based; settings: peptide 100 μg/ml; FIG. 1A
# Description: It was examined by the following method as to whether or not the monoclonal antibodies inhibited cell adhesion to OPN. First, a 96-well plate was precoated with various concentrations of the CHO/OPN-a at 4° C. overnight, which was then treated with 0.5% BSA in PBS under conditions of 37° C. for 10 minutes, so as to block non-specific adhesion. A human fibroblast TIG-7 or SW480 cell transformed with the cDNA of an integrin subunit α9 (referred to as “α9-transformed SW480 cell” hereinafter) was suspended in D-MEM containing 0.25% BSA; 200 μl of the resulting cell suspension (at a cell concentration of 5×10^4 cells/well) was injected in a 96-well plate precoated with the CHO/OPN-a or nOPN, in the presence or absence of various concentrations of the monoclonal antibodies or synthetic peptides, for incubation at 37° C. for one hour.
# The culture medium was discarded from the plate, and all the wells were rinsed twice with D-MEM containing 0.25% BSA. The adherent cells were fixed and stained with 0.5% crystal violet in 20% methanol for 30 minutes.
# All the wells were rinsed three times with water, and the adherent cells were then solubilized into 20% acetic acid. The resulting supernatant recovered from each well was analyzed with an immunoreader, to measure the absorbance at 590 nm to determine the relative count of the cells adhering to the well. […]
# [3] = tested on: α9-transformed SW480 cell adhesion to vitronectin; assay: Adhesion of α9-transformed SW480 cell to vitronectin; format: cell-based, human; settings: 1 μg/ml vitronectin; 200 μM peptide; FIG. 2A
# [4] = tested on: murine NIH3T3 cell adhesion to mOPN/de-GST; assay: Inhibition of NIH3T3 cell adhesion to murine OPN (mOPN/de-GST); format: cell-based, mouse; settings: peptide 100 μg/ml; FIG. 7
# Text: It was examined by the method described in the reference (S. Kon et al., (2002): J. Cell. Biochem., 84(2), 420-432) as to whether or not the M5 antibody might inhibit cell adhesion to OPN. As the OPN, the full-length murine OPN was used, from which the GST moiety had preliminarily been removed with PreScission protease (Amersham Pharmacia Biotech, Tokyo, Japan) (referred to as “mOPN/de-GST” hereinafter) was used. As the cell, murine NIH3T3 cell was used.
Compound,"Overall effect in mouse arthritis model (arthritis score, onset of arthritis, leg edema) [1]",Arthritis score ([1]; day 3),Arthritis score ([1]; day 4),Arthritis score ([1]; day 5),Arthritis score ([1]; day 6),Volume of leg edema ([1]; Foreleg),Volume of leg edema ([1]; Hind leg),Body weight change ([1]; day 0 to day 3 post-dosing),Quantity of feed intake ([1]; day 0 to day 3 post-dosing),Body weight change ([1]; day 3 to day 6 post-dosing),Quantity of feed intake ([1]; day 3 to day 6 post-dosing),Inhibition of TIG-7 adhesion to OPN by peptide [2],Inhibition of adhesion between vitronectin and α9-transformed SW480 cell by peptide [3],Inhibition of NIH3T3 adhesion to mOPN/de-GST by peptide [4]
CN(Cc1cnc2nc(N)nc(N)c2n1)c1ccc(C(=O)N[C@@H](CCC(=O)O)C(=O)O)cc1 [MTX],almost no pharmaceutical efficacy,0.8 ± 0.4,1.8 ± 0.7,6.0 ± 0.6,6.0 ± 0.6,0.047 ± 0.003 mL,0.132 ± 0.003 mL,-1.5 g,0.8 g/mouse/day,-1.8 g,2.1 g/mouse/day,–,–,–
GRGDSP,–,–,–,–,–,–,–,–,–,–,–,apparently inhibited,inhibited,apparently inhibited
